Results taken from US5114920A, “BU-3292T antibiotics” (priority 1988, dated 1992).
In brackets after ≈: the same amount, converted by molar mass. Starred links: 1 amine or outer side, 2 acyl side, 3 side chain; linkers in the order of their positions; H or OH if unused. Positions of bridges follow the written chain, without caps; N, C: chain ends. Non-standard residues stand in square brackets, D forms with d. Residues, ends and D or L forms follow the SMILES beside them. Chains are numbered I, II in the order given. Actinocin(9to1) = Cc1c2oc3c(C)ccc(C(=O)[*:1])c3nc-2c(C(=O)[*:2])c(N)c1=O; X2 = CC1CCC(C(=O)[*:2])N1[*:1]; NMeV = CN[CH](C(=O)O)C(C)C; Sar = CNCC(=O)O

What was measured:
[1] = test system: lymphocytic leukemia P388; experiment: Antitumor activity against P388 leukemia (ip); format: in vivo, mice; settings: for MST (Median survival time) / T/C: QD × 3, ip
Method: (§1) BU-3292T components A and B were tested for in vitro cytotoxicity against murine and human tumor cells and for in vivo antitumor activity in mice. Actinomycin D was used as a reference compound in both in vitro and in vivo experiments. B16-F10 (murine melanoma) and Moser (human colorectal carcinoma) cells were grown to the logarithmic phase in enriched Eagle minimum essential medium (MEM) supplemented with fetal calf serum (FCS, 10%) and kanamycin (60 mcg/ml), harvested and inoculated into wells of a 96-well microtiter plate with test materials at the concentrations of 3.0×10^4 and 6.0×10^4 cells/ml, respectively. They were incubated at 37° C. in humidified atmosphere of 5% CO2 and 95% air for 72 hours. The cytotoxic activity was determined colorimetrically at 540 nm after staining viable cells with neutral red. […] Inhibitory effects of BU-3292T component A on macromolecule (DNA, RNA and protein) synthesis were determined in vitro. Cultured L1210 murine leukemia cells (5×10^5 cells/ml) were incubated with test materials at 37° C. for 15 minutes and then further incubated for 60 minutes after the addition of labelled precursor, ^3 H-thymidine, ^14 C-uridine or ^3 H-leucine, into the cultured mixtures. After washing with chilled 5% trichloroacetic acid solution, the radioactivity incorporated into the acid-insoluble fraction of the tumor cells was determined in a liquid scintillation counter. […] In vivo antitumor activities of BU-3292T components A and B were tested in tumor-bearing female CDF mice. After the intraperitoneal implantation of diluted ascitic fluid with 1.0 ×10^6 lymphocytic leukemia P388 cells into the mice, test compounds were administered intraperitoneally once a day on days 1, 2 and 3 (QD×3).

[2] = test system: Moser (human colorectal carcinoma) cells; experiment: In vitro cytotoxicity, neutral red staining; format: cell-based; settings: 72 hours
Method: as §1

[3] = test system: B16-F10 (murine melanoma) cells; experiment: In vitro cytotoxicity, neutral red staining; format: cell-based
Method: as §1

[4] = Body weight change in P388-bearing mice; settings: QD × 3, ip
Method: as §1

[5] = test system: Cryptococcus neoformans IAM 4519; experiment: Antimicrobial activity, serial two-fold agar dilution method; format: cell-based; settings: Sabouraud dextrose agar
Method: (§2) The antimicrobial activity of BU-3292T A and B was determined against aerobic and anaerobic bacteria and fungi by a serial two-fold agar dilution method. BU-3292T A and B are active against aerobic gram-positive bacteria, and weakly active against anaerobic gram-negative bacteria and fungi.

[6] = test system: Pseudomonas aeruginosa A9930; experiment: as above; format: cell-based; settings: Nutrient agar
Method: as §2

[7] = test system: Clostridium difficile A21675; experiment: as above; format: cell-based; settings: GAM agar
Method: as §2

[8] = test system: Staphylococcus epidermidis D153; experiment: as above; format: cell-based; settings: Nutrient agar
Method: as §2

[9] = test system: Aspergillus fumigatus IAM 2530; experiment: as above; format: cell-based; settings: Sabouraud dextrose agar
Method: as §2

[10] = test system: Staphylococcus aureus smith; experiment: as above; format: cell-based; settings: Nutrient agar
Method: as §2

[11] = test system: Streptococcus pyogenes A20201; experiment: as above; format: cell-based; settings: Nutrient agar
Method: as §2

Proteus vulgalis A9436 = experiment: as above; format: cell-based; settings: Nutrient agar
Method: as §2

Micrococcus luteus 1001 = experiment: as above; format: cell-based; settings: Nutrient agar
Method: as §2

Mucor spinosus IFO 5317 = experiment: as above; format: cell-based
Method: as §2

Escherichia coli NIHJ = experiment: as above; format: cell-based; settings: Nutrient agar
Method: as §2

[12] = test system: Propionibacterium anaerobius A21905; experiment: as above; format: cell-based; settings: GAM agar
Method: as §2

[13] = test system: Streptococcus faecalis A9612; experiment: as above; format: cell-based; settings: Nutrient agar
Method: as §2

[14] = test system: Candida albicans IAM 4888; experiment: as above; format: cell-based; settings: Sabouraud dextrose agar
Method: as §2

[15] = test system: Trichophyton mentagrophytes D155; experiment: as above; format: cell-based; settings: Sabouraud dextrose agar
Method: as §2

[16] = test system: Bacteroides fragilis A22693; experiment: as above; format: cell-based; settings: GAM agar
Method: as §2

[17] = test system: Klebsiella pneumoniae D11; experiment: as above; format: cell-based; settings: Nutrient agar
Method: as §2

[18] = test system: Bacillus subtilis PCI-219; experiment: as above; format: cell-based; settings: Nutrient agar
Method: as §2

[19] = test system: Fusarium moniliforme A2284; experiment: as above; format: cell-based; settings: Sabouraud dextrose agar
Method: as §2

Proteus mirabilis A9554 = experiment: as above; format: cell-based; settings: Nutrient agar
Method: as §2

[20] = test system: Staphylococcus aureus 209P; experiment: as above; format: cell-based; settings: Nutrient agar
Method: as §2

[21] = test system: Propionibacterium acnes A21933; experiment: as above; format: cell-based; settings: GAM agar
Method: as §2

Solubility = format: physicochemical
Source text: BU-3292T A is isolated as a white amorphous powder, while BU-3292T B is an orange-red powder. […] The compounds give positive responses to iodine and Rydone-Smith reagents, but negative responses to Sakaguchi, ferric chloride, ninhydrin and anthrone reagents. […] The IR spectra of BU-3292T A and B are illustrated in FIGS. 1 and 2, respectively.

[22] = test system: anaerobic gram-negative bacteria and fungi; experiment: Antimicrobial activity, agar dilution, summary in words; format: cell-based; settings: summary of Table 6
Method: as §2

gram-negative bacteria = experiment: as above; format: cell-based; settings: summary of Table 6
Method: as §2

[23] = test system: aerobic gram-positive bacteria; experiment: as above; format: cell-based; settings: summary of Table 6
Method: as §2

[24] = test system: Clostridium perfringens A9635; format: cell-based; settings: GAM agar

Cc1c2oc3c(C)ccc(C(=O)NC4C(=O)NC(C(C)C)C(=O)N5C(C)CCC5C(=O)N(C)CC(=O)N(C)C(C(C)C)C(=O)OC4C)c3nc-2c(C(=O)NC2C(=O)NC(C(C)C)C(=O)N3C(C)CCC3C(=O)N(C)CC(=O)N(C)C(C(C)C)C(=O)OC2C)c(N)c1=O (centres unmarked) [BU-3292T B] (I: TV[X2][Sar][NMeV] / II: TV[X2][Sar][NMeV]; ester I:1-I:C, II:1-II:C; linker I:N-II:N via Actinocin(9to1); configuration not given here)
MST (Median survival time) ([1]; 0.003 mg/kg/day): 11.0 days | T/C ([1]; 0.003 mg/kg/day): 110% | MST (Median survival time) ([1]; 0.01 mg/kg/day): 12.0 days | T/C ([1]; 0.01 mg/kg/day): 120% | MST (Median survival time) ([1]; 0.03 mg/kg/day): 14.0 days | T/C ([1]; 0.03 mg/kg/day): 140% | MST (Median survival time) ([1]; 0.1 mg/kg/day): 16.0 days | T/C ([1]; 0.1 mg/kg/day): 160% | MST (Median survival time) ([1]; 0.3 mg/kg/day): 8.0 days | T/C ([1]; 0.3 mg/kg/day): 80% | MST (Median survival time) ([1]; 1 mg/kg/day): Tox | T/C ([1]; 1 mg/kg/day): Tox | maximum T/C value ([1]; anti-P388 leukemic activity, QD×3, ip): 160% | IC50 [2]: 0.06 µg/mL (≈ 0.0467 µM) | IC50 ([3]; B16-F10, 72 hours): < 0.00016 µg/mL | times stronger against B16-F10 cells than against Moser cells ([3]; cytotoxic activity, B16-F10 versus Moser): ~400 times | Body weight change on day 4 ([4]; 0.003 mg/kg/day): +1.0 g | Body weight change on day 4 ([4]; 0.01 mg/kg/day): +1.0 g | Body weight change on day 4 ([4]; 0.03 mg/kg/day): +1.0 g | Body weight change on day 4 ([4]; 0.1 mg/kg/day): -1.0 g | Body weight change on day 4 ([4]; 0.3 mg/kg/day): -3.3 g | MIC [5]: > 100 µg/mL | MIC [6]: > 100 µg/mL | MIC [7]: > 100 µg/mL | MIC [8]: 1.6 µg/mL (≈ 1.25 µM) | MIC [9]: > 100 µg/mL | MIC [10]: 1.6 µg/mL (≈ 1.25 µM) | MIC [11]: 0.8 µg/mL (≈ 0.623 µM) | MIC (Proteus vulgalis A9436): > 100 µg/mL | MIC (Micrococcus luteus 1001): 0.4 µg/mL (≈ 0.312 µM) | MIC (Mucor spinosus IFO 5317; Mucor spinosus IFO 5317, Sabouraud dextrose agar): 25 µg/mL (≈ 19.5 µM) | MIC (Mucor spinosus IFO 5317; in vitro against Mucor spinosus IF05317): 25 µg/mL (≈ 19.5 µM) | MIC (Escherichia coli NIHJ): > 100 µg/mL | MIC [12]: 6.3 µg/mL (≈ 4.91 µM) | MIC [13]: 0.8 µg/mL (≈ 0.623 µM) | MIC [14]: > 100 µg/mL | MIC [15]: > 100 µg/mL | MIC [16]: > 100 µg/mL | MIC [17]: 100 µg/mL (≈ 77.9 µM) | MIC [18]: 0.8 µg/mL (≈ 0.623 µM) | MIC [19]: 50 µg/mL (≈ 39 µM) | MIC (Proteus mirabilis A9554): > 100 µg/mL | MIC [20]: 1.6 µg/mL (≈ 1.25 µM) | MIC [21]: 12.5 µg/mL (≈ 9.74 µM) | solubility in dimethyl sulfoxide, dimethylformamide, methanol, ethyl acetate and chloroform (Solubility; dimethyl sulfoxide, dimethylformamide, methanol, ethyl acetate, chloroform): readily soluble | solubility in water and other organic solvents (Solubility; water and other organic solvents): insoluble | activity against anaerobic gram-negative bacteria and fungi [22]: weakly active | activity against gram-negative bacteria (gram-negative bacteria): inactive | activity against aerobic gram-positive bacteria [23]: active | MIC [24]: 25 µg/mL (≈ 19.5 µM)
